Laboratory results taken from patent publication US20210137941A1 (ZARODEX THERAPEUTICS LIMITED, priority 2018, published 2021).
“Also recorded” adds a separate entry of the source.

Experiments:
[1] = tested on: IgG to Haemophilus influenza B, Pneumococcus and Tetanus; conditions: human, in vivo
[2] = tested on: anti-collagen IgG1 and IgG2a; test: CIA model: serum anti-collagen immunoglobulin by ELISA; format: in vivo, DBA/1 mice; conditions: FIG. 33
Protocol: (§1) All experiments were approved by the Clinical Medicine Animal Welfare and Ethical Review Body (AWERB) and by the UK Home Office.
At the end of the experimental period, mice were humanely euthanised and bled by cardiac puncture to obtain blood samples for serum separation, storage at −80° C. and subsequent measurement of specific anti-collagen immunoglobulin (IgG1 and IgG2a isotypes) by ELISA. In parallel, spleen and inguinal lymph nodes were harvested for evaluation of cellular composition across these compartments using multi-laser flow cytometric detection and analysis. Numbers of B cell subsets in spleen and lymph nodes were determined by FACS.
(§2) Data were analyzed by one-way ANOVA with Tukey's or Dunnett's multiple comparison test or two-way ANOVA with Tukey's multiple comparison test as appropriate. All calculations were made using GraphPad Prism software. A P value less than 0.05 was considered significant.

[3] = in vivo; cited from earlier work
[4] = tested on: collagen-induced arthritis (CIA); test: Mouse collagen-induced arthritis (CIA) model: onset, incidence, clinical score, paw swelling; format: in vivo, DBA/1 mice
Protocol: Adult (age 13-15 weeks) DBA/1 male mice were purchased from Envigo (Horst, Netherlands). Mice were housed at a 21° C.±2° C. in individually ventilated cages with free access to food and water and a 12-h light/dark cycle (7 am/7 pm). Mice were acclimatised for 1 week on arrival prior to initiating experiments.
as §1
DBA/1 mice were immunised with bovine type II collagen in CFA and monitored daily for onset of arthritis. […] Controls received vehicle (saline) alone. Treatment of mice commenced in one experiment on day 1 after immunisation and in a second experiment on day 15 after immunisation. Clinical scores and paw-swelling were monitored for 10 days following onset of arthritis. A clinical scoring system was used as follows. Arthritis severity was scored by an experienced, non-blinded investigator as follows: 0=normal, 1=slight swelling and/or erythema, 2=pronounced swelling, 3=ankylosis. All four limbs were scored, giving a maximum possible score of 12 per animal.
as §2

[5] = tested on: splenic B cell and T cell populations; test: Wild type mouse study: spleen immunophenotyping by flow cytometry; format: in vivo, C57BL/6 mice

Compound: CN1CCN(C2=Nc3cc(Cl)ccc3Nc3ccccc32)CC1 [Clozapine, clozapine]
- individuals failing to develop a pneumococcal IgG response above 50 mg/L [1]: 73%
- individuals failing to exceed 0.1 IU/mL post-vaccination Tetanus-IgG level [1]: 1/12
- individuals failing to mount a Haemophilus-IgG response of at least 1 mcg/ml [1]: 42%
- patients with IgG to Haemophilus influenza B (HiB) <1 mcg/ml [1]: 75%
- patients with Pneumococcus-IgG <50 mg/L [1]: 94%
- patients with Tetanus-IgG <0.1 IU/mL [1]: 38%
- patients with impaired responses to vaccination [1]: 10/11
- vaccine response, individual referred patients [1]: Failure to responds to; also recorded: Non-durable
- serum anti-type II collagen IgG1 reduction ([2]; 10 mg/kg from day 15): reaching statistical significance
- serum anti-type II collagen IgG2a ([2]; 5 or 10 mg/kg from day 1 or day 15, single time point): no significant impact
- serum anti-type II collagen IgG1 ([2]; across all doses tested): nominal reductions
- LD50 [3]: 200 mg/kg
- swelling of the first affected paw ([4]; 10 mg/kg from day 1, FIG. 27): reduced swelling of the first affected paw
- onset of arthritis post-immunisation ([4]; 5 or 10 mg/kg IP daily from day 1 or day 15, FIG. 25, 26): significantly effective
- incidence of CIA ([4]; FIG. 26): reduces the incidence
- onset of arthritis, treatment from day 1 ([4]; both doses (5, 10 mg/kg) from day 1, FIG. 25, 26): extremely effective
- overall clinical score ([4]; both doses, administered from day 1, FIG. 27): reduced overall clinical score
- total number of affected paws compared to vehicle control ([4]; significant with dosing at D1, FIG. 28): reduced the total number of affected paws
- percentage of splenic B cells (B220+TCR-beta-) of total live splenocytes ([5]; 5 mg/kg and 10 mg/kg IP, 21 days, FIG. 21): significantly lower percentage
- other splenic cell populations (B220-TCR-beta-) ([5]; FIG. 21): No effect
- percentage of splenic T cells ([5]; FIG. 21): reciprocal increase
- splenic follicular B cell subset ([5]; FIG. 22): no specific reductions
- splenic marginal zone B cell subset ([5]; FIG. 22): no specific reductions
- proportion of T2 B cells in the spleen ([5]; across all doses, FIG. 22): small increase
- activated T cells (B220+TCR-beta+) in spleen vs control ([5]; clozapine 2.5-10 mg/kg, haloperidol 1 mg/kg, IP 21 days, FIG. 21): reduced in dose-dependent fashion
- transitional stage 1 (T1) B cells in the spleen ([5]; including at the 2.5 mg/kg dose, FIG. 22): mildly reduced proportion
- germinal centre cells in the spleen vs control or haloperidol ([5]; steady state, FIG. 22): no differences observed
